The assay deals with T1, Angiotensin II-receptor (Rattus norvegicus, UniProt P25095).
T1 construct: The tissue (rats lung) is homogenised in Tris-buffer; from tissue; host or cells: rat lung homogenate (washed 20,000x g pellet)
T1 sequence (P25095 1-359): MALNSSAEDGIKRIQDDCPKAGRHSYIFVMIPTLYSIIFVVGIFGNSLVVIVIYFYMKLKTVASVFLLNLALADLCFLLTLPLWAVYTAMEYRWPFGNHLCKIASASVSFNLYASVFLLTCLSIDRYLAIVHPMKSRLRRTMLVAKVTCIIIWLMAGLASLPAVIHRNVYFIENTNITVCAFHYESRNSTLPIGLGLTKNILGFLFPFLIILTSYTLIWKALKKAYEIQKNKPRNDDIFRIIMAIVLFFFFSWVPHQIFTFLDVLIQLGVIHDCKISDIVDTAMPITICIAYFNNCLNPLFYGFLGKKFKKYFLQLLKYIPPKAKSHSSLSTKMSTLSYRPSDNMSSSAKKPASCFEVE
The experiment in a line: Angiotensin II-receptor bonding. In kind it is binding. The method, then:
Description of method: Angiotensin II-receptor bonding
The tissue (rats lung) is homogenised in Tris-buffer (50 mMol Tris, 150 mMol NaCl, 5 mMol EDTA, pH 7.40) and centrifuged twice for 20 minutes at 20,000x g. The finished pellets are resuspended in incubating buffer (50 mMol Tris, 5 mMol MgCl2, 0.2% BSA, pH 7.40) 1:75, based on the moist weight of the tissue. Each 0.1 ml of homogenate is incubated for 60 minutes at 37° C. with 50 pM [^125 I]-angiotensin II (NEN, Dreieich, FRG) with increasing concentrations of the test substance in a total volume of 0.25 ml. Incubation is ended by rapid filtration through glass fibre filter mats. The filters are each washed with 4 ml of ice cold buffer (25 mMol Tris, 2.5 mMol MgCl2, 0.1% BSA, pH 7.40). The bound radioactivity is measured using a gamma-counter. The corresponding IC50 value is obtained from the dose-activity curve.
In the test described, substances A to I show the following IC50 values: […]

Where [1] appears, read: rats lung homogenate, 50 pM [^125 I]-angiotensin II, 60 minutes at 37° C., pH 7.40, read-out: IC50.

Read-outs that look alike come from different tables or passages of the source.

By IC50 is commonly meant the concentration that inhibits the measured activity by half.

`Cc1cc(OCc2ccc(OC(C(=O)O)c3ccccc3)cc2)c2ccccc2n1` (stereo not drawn) [Substance D, 2-Methyl-4-[4'-[(α-carboxy)benzyloxy]benzyloxy]quinoline]: the IC50 under setting [1] came to 2000 nM. Turning to `CCCc1nc2c(C)cccc2n1Cc1ccc(OC(C(=O)O)c2ccccc2)cc1` (stereo not drawn) [Substance A, 2-n-Propyl-4-methyl-1-[4-[(α-carboxy)benzyloxy]benzyl]benzimidazole], under setting [1], the IC50 was determined as 76 nM. Same read-out and setting: next, `CCCCc1nc2c(C)cccc2c(=O)n1Cc1ccc(OC(C(=O)O)c2ccccc2)cc1` (stereo not drawn) [Substance E, 2-n-Butyl-8-methyl-3-[4-[(α-carboxy)benzyloxy]benzyl]-quinazolin-4-one-semihydrate]: 2000 nM.

As for `CCCCc1nc2ccc(NC(=O)N(C)C)cc2n1Cc1ccc(OC(C(=O)O)c2ccccc2)cc1` (stereo not drawn) [Substance B, 2-n-Butyl-1-[4-[(α-carboxy)benzyloxy]benzyl]-6-dimethylaminocarbonylamino-benzimidazole], the IC50 under setting [1] came to 8 nM. As to `CCCCc1nc2ccccc2n1Cc1ccc(NC(c2ccccc2)P(=O)(O)OCC)cc1` (stereo not drawn) [Substance I, 2-n-Butyl-1-[4-[α-(O-ethyl-phosphono)benzylamino]benzyl]benzimidazole], the midpoint of inhibition, the IC50, lay at 560 nM. `CCCc1nc2c(C)cc(-c3nc4ccccc4n3C)cc2n1Cc1ccc(OC(C(=O)O)c2ccccc2)cc1` (stereo not drawn) [Substance C, 2-n-Propyl-6-(1-methyl-benzimidazol-2-yl)-4-methyl-1-[4-[(α-carboxy)benzyloxy]benzyl]benzimidazole]: the IC50 under setting [1] came out at 4 nM. On the same count and under the same terms, the same measure for `CCCc1nc2c(C)cc(-c3nc4ccccc4n3C)cc2n1Cc1ccc(OC(c2ccccc2)c2nnn[nH]2)cc1` (stereo not drawn) [Substance F, 2-n-Propyl-4-methyl-6-(1-methyl-benzimidazol-2-yl)-1-[4-[α-(1H-tetrazol-5-yl)benzyloxy]benzyl]benzimidazole]: 12 nM; for `CCCCc1nc2cc(N3CCCN(Cc4ccccc4)C3=O)c(C)nc2n1Cc1ccc(OC(c2ccccc2)c2nnn[nH]2)cc1` (stereo not drawn) [Substance H, 2-n-Butyl-5-methyl-6-(3-benzyl-3,4,5,6-tetrahydro-2(1H)-pyrimidinon-1-yl)-3-[4-[α-(1H-tetrazol-5-yl)benzyloxy]benzyl]imidazo[4,5-b]pyridine]: 27 nM. Same read-out and setting: next, `CCCCc1nc2ccc(N(C)C(=O)CC)cc2n1Cc1ccc(OC(CC(C)C)C(=O)O)cc1` (stereo not drawn) [Substance G, 2-n-Butyl-6-(N-propionyl-methylamino)-1-[4-[(1-carboxy-3-methyl)butyloxy]benzyl]benzimidazole]: 830 nM.

The record behind these values is US5519138A, “Phenylalkyl derivatives, with pharmaceutical activity” (Dr. Karl Thomae GmbH, priority 1991, dated 1996).
